Laboratory results from PubChem BioAssay (NCI).
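Protocol summary: plate cells (96-well), add compound at 5 concentrations, incubate 48 h, interpolate endpoints linearly. TGI denotes the concentration required for complete inhibition of growth.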

Assays:
Assay in all cases: growth of human tumour cells (NCI), 48 h
[1] = tested on: 786-0 renal
[2] = tested on: A498 renal
[3] = tested on: A549 NSCLC
[4] = tested on: ACHN renal
[5] = tested on: BT-549 breast
[6] = tested on: CAKI-1 renal
[7] = tested on: CCRF-CEM leukemia
[8] = tested on: COLO 205 colon
[9] = tested on: DU-145 prostate
[10] = tested on: EKVX NSCLC
[11] = tested on: HCC-2998 colon
[12] = tested on: HCT-116 colon
[13] = tested on: HCT-15 colon
[14] = tested on: HL-60(TB) leukemia
[15] = tested on: HOP-62 NSCLC
[16] = tested on: HOP-92 NSCLC
[17] = tested on: HS 578T breast
[18] = tested on: HT29 colon
[19] = tested on: IGROV1 ovarian
[20] = tested on: K-562 leukemia
[21] = tested on: KM12 colon
[22] = tested on: LOX IMVI melanoma
[23] = tested on: M14 melanoma
[24] = tested on: MALME-3M melanoma
[25] = tested on: MCF7 breast
[26] = tested on: MDA-MB-231 breast
[27] = tested on: MDA-MB-435
[28] = tested on: MDA-N
[29] = tested on: MOLT-4 leukemia
[30] = tested on: NCI-H23 lung
[31] = tested on: NCI-H460 lung
[32] = tested on: NCI-H522 lung
[33] = tested on: NCI/ADR-RES ovarian
[34] = tested on: OVCAR-3 ovarian
[35] = tested on: OVCAR-4 ovarian
[36] = tested on: OVCAR-5 ovarian
[37] = tested on: OVCAR-8 ovarian
[38] = tested on: PC-3 prostate
[39] = tested on: RPMI-8226 leukemia
[40] = tested on: RXF 393 renal
[41] = tested on: SF-268 CNS
[42] = tested on: SF-295 CNS
[43] = tested on: SF-539 CNS
[44] = tested on: SK-MEL-2 melanoma
[45] = tested on: SK-MEL-28 melanoma
[46] = tested on: SK-MEL-5 melanoma
[47] = tested on: SK-OV-3 ovarian
[48] = tested on: SN12C renal
[49] = tested on: SNB-19 CNS
[50] = tested on: SNB-75 CNS
[51] = tested on: SR leukemia
[52] = tested on: SW-620 colon
[53] = tested on: T-47D breast
[54] = tested on: TK-10 renal
[55] = tested on: U251 CNS
[56] = tested on: UACC-257 melanoma
[57] = tested on: UACC-62 melanoma
[58] = tested on: UO-31 renal
[59] = tested on: NCI-H226 lung

Measured: TGI

NC1=NCC(CN2CCCC2)O1 (stereo not given)
> 100 µM: [1] | [2] | [3] | [4] | [5] | [6] | [7] | [8] | [9] | [10] | [11] | [12] | [13] | [14] | [15] | [16] | [17] | [18] | [19] | [20] | [21] | [22] | [23] | [24] | [25] | [26] | [27] | [28] | [29] | [30] | [31] | [32] | [33] | [34] | [35] | [36] | [37] | [38] | [39] | [40] | [41] | [42] | [43] | [44] | [45] | [46] | [47] | [48] | [49] | [50] | [51] | [52] | [53] | [54] | [55] | [56] | [57] | [58]

c1ccc(-c2nnn(CCN3CCCCC3)n2)cc1
> 100 µM: [1] | [2] | [3] | [4] | [5] | [6] | [7] | [8] | [9] | [10] | [11] | [12] | [13] | [14] | [15] | [16] | [17] | [18] | [19] | [20] | [21] | [22] | [23] | [24] | [25] | [26] | [27] | [28] | [59] | [30] | [31] | [32] | [33] | [34] | [35] | [36] | [37] | [38] | [39] | [40] | [41] | [42] | [44] | [45] | [46] | [47] | [48] | [49] | [50] | [51] | [52] | [53] | [54] | [55] | [56] | [57] | [58]
